How the values were obtained:
DNA polymerases = assay: Primer extension with several different DNA polymerases, template directing dATP, dATP, dATP, dGTP (FIG. 12); assay type: biochemical; settings: only the indicated nucleotide, 100 μM, 30 minutes
Protocol: Different Polymerases React Differently to the ANS-γ-modified Nucleotides: primer extension reactions were performed to determine the ability of various polymerases to incorporate γ-tagged dNTPs during DNA polymerization. Control reactions contained natural dNTPs to monitor for template-directed nucleotide incorporation as well as for misincorporation as shown in FIG. 12. The reactions were performed in the appropriate buffer and contained the specified polymerase, primer/template duplex (radiolabeled ‘TOP’ primer annealed to ‘BOT-3TC’ template), and only the indicated dNTP. The reactions were carried out at room temperature or at 37° C. for 30 minutes and were stopped by the addition of […]. The volume of the reaction was then reduced to approximately 2-4 μL, loading dye was added and the polymerization products were electrophoresed through a 20% denaturing polyacrylamide gel. Arrows indicate the position of the free labeled ‘TOP’. Asterisks indicate 3-base extension.
Primer extension experiments were performed with several different DNA polymerases to determine whether any of them could incorporate the ANS-γ-phosphate modified nucleotides (FIG. 12). These experiments were performed by incubating the indicated polymerase in appropriate extension buffer, 100 μM ANS-γ-modified dATP, and a 5′-^32P end-labeled primer annealed to a template that directed sequential incorporation of dATP, dATP, dATP dGTP. Positive and negative control reactions containing natural dATP or dGTP, respectively, were run in parallel to monitor template-directed nucleotide incorporation or mis-incorporation. Reactions containing dATP should produce 3-base extension products, whereas those containing dGTP should not produce extended products (due to the absence of dATP). No products longer than 3-bases should result, since no reaction contained more than one nucleotide type. […] Reaction products were heat denatured, loaded onto a 20% denaturing polyacrylamide gel, size-separated (2400 V; 1 hour), and detected via phosphorimaging.

Taq DNA polymerase = target: T1, Taq DNA polymerase (Thermus aquaticus, UniProt P19821); assay: Primer extension assay with a single nucleotide, TOP primer/BOT template duplexes (FIG. 1); assay type: biochemical; settings: for DNA strand extension and misincorporation on a template with multiple Ts: template BOT-3TC, lanes 10, 11
T1 construct: purchased Promega Corporation
Protocol: The ability of a commercially available polymerase to incorporate the novel dNTPs synthesized was monitored using primer extension assays.
This first example illustrates the incorporation of ANS-γ-phosphate dATP to produce extended DNA products from primer/template duplexes. The reactions were carried out in extension buffer and the resulting radiolabeled products were size separated on a 20% denaturing polyacrylamide gel. Data were collected using a phosphorimaging system. Referring now FIG. 1, Lane 1 contained 5′ radiolabeled ‘TOP’ probe in extension buffer. Lane 2 contained Taq DNA polymerase, 50 μM dGTP incubated with a DNA duplex (radiolabeled TOP with excess ‘BOT-Sau’). Lane 3 contained Taq DNA polymerase, 50 μM dATP incubated with a DNA duplex (radiolabeled TOP with excess ‘BOT-Sau’). Lane 4 contained Taq DNA polymerase, 50 μM ANS-γ-dATP incubated with a DNA duplex (radiolabeled TOP with excess ‘BOT-Sau’). Lane 5 contained Taq DNA polymerase, 50 μM dGTP incubated with a DNA duplex (radiolabeled TOP with excess ‘BOT-TC’). Lane 6 contained spill-over from lane 5. Lane 7 contained Taq DNA polymerase, 50 μM dATP incubated with a DNA duplex (radiolabeled TOP with excess ‘BOT-TC’). Lane 8 contained Taq DNA polymerase, 50 μM ANS-γ-dATP incubated with a DNA duplex (radiolabeled TOP with excess ‘BOT-TC’). Lane 9 contained Taq DNA polymerase, 50 μM dGTP incubated with a DNA duplex (radiolabeled TOP with excess ‘BOT-3TC’). Lane 10 contained Taq DNA polymerase, 50 μM dATP incubated with a DNA duplex (radiolabeled TOP with excess ‘BOT-3TC’). Lane 11 contained Taq DNA polymerase, ANS-γ-dATP incubated with a DNA duplex (radiolabeled TOP with excess ‘BOT-3TC’). Lane 12 contained 5′ radiolabeled ‘TOP’ probe in extension buffer. Lane 13 contained 5′ radiolabeled ‘TOP’ probe and Taq DNA polymerase in extension buffer.
In these experiments, Taq DNA polymerase (2.5 units/reaction; Promega Corporation) was incubated in polymerase reaction buffer with 10,000 cpm of 5′-^32P end-labeled ‘TOP’ primer, 10 ng of the indicated single-stranded template, and the specified dNTP. The sequences of the oligonucleotides are shown (Table 1). Extension reactions were incubated for 30 minutes, and terminated by the addition of 1 µl of 0.5 M EDTA. The reactions were lyophilized and resuspended in 3.5 µl of sequencing loading buffer. Reaction products were heat denatured, loaded onto a 20% denaturing polyacrylamide gel, size-separated, and quantified using a phosphorimaging system (Fuji Medical Systems, Inc.).

[1] = template BOT-3TC (three A's to be incorporated), lanes 9-11
[2] = template BOT-Sau (first incorporated base should be dGTP), 50 μM nucleotide, lanes 2-4
[3] = template BOT-TC (single A to be incorporated), 50 μM nucleotide, lanes 5-8

T1 sequence (P19821 whole entry): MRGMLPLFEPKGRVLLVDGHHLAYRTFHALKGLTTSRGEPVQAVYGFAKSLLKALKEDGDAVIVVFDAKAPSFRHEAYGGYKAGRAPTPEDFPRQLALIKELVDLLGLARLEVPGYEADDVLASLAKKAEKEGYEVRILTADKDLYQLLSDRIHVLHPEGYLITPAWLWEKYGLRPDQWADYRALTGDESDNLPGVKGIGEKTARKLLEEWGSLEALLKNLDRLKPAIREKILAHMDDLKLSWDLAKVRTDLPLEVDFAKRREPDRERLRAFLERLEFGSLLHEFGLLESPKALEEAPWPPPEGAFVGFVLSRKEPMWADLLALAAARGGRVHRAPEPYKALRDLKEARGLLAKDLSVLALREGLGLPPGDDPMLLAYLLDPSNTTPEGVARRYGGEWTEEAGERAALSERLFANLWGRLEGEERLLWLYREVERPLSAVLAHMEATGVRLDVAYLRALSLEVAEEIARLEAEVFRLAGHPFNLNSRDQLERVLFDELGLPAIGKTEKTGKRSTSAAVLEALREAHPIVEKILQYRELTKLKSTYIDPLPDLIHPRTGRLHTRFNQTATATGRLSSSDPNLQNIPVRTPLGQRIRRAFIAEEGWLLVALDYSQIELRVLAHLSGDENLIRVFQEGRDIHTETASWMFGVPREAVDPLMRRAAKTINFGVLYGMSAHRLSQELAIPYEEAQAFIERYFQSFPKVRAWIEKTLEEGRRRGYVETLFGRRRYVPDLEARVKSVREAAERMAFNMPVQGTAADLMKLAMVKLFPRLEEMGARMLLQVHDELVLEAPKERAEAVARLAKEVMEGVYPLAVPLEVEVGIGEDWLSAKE

| Molecule | extension products formed (DNA polymerases) | Percent Correct (Taq DNA polymerase; [1]) [%] | Percent Mis-Extended (Taq DNA polymerase; [1]) [%] | Total Percent Extended (Taq DNA polymerase; [1]) [%] | DNA strand extension and misincorporation on a template with multiple Ts (Taq DNA polymerase) | Percent Correct (Taq DNA polymerase; [2]) [%] | Percent Mis-Extended (Taq DNA polymerase; [2]) [%] | Total Percent Extended (Taq DNA polymerase; [2]) [%] | Percent Correct (Taq DNA polymerase; [3]) [%] | Percent Mis-Extended (Taq DNA polymerase; [3]) [%] | Total Percent Extended (Taq DNA polymerase; [3]) [%] | percent extension of the TOP primer (template-directed single base) (Taq DNA polymerase; template BOT-TC, first incorporated base should be dATP, lanes 7, 8) [%] | extension products misextended opposite a template C (Taq DNA polymerase; template BOT-TC, lane 7, percent of the extension products) [%] | misextended products further extended by the enzyme's terminal transferase activity (Taq DNA polymerase; template BOT-TC, lane 7, percent of the misextended products) [%] | decrease in misextensions, tagged nucleotide versus dATP (Taq DNA polymerase; G is to be incorporated, dATP the only nucleotide in the reaction medium) [fold] | decrease in misextensions, tagged nucleotide versus dATP (Taq DNA polymerase; a single A is to be incorporated) [fold] | non-specific, single-base extension (Taq DNA polymerase; template BOT-Sau, first incorporated base should be dGTP (not added), lane 4 vs lane 1) | decrease in misextensions, tagged nucleotide versus dATP (Taq DNA polymerase; three A's are to be incorporated) [fold] |
| --- | --- | --- | --- | --- | --- | --- | --- | --- | --- | --- | --- | --- | --- | --- | --- | --- | --- | --- |
| Nc1ncnc2c1ncn2[C@H]1C[C@H](O)[C@@H](COP(=O)(O)OP(=O)(O)OP(=O)(O)O)O1 [dATP] | increased amounts of mis-extended products | 27.11 | 54.92 | 82.03 | frequently misincorporated opposite a template C | 61.99 | 38.01 | 38.01 | 15.24 | 69.01 | 84.25 | 75 | 60 | 34 |  |  |  |  |
| Nc1nc2c(ncn2[C@H]2C[C@H](O)[C@@H](COP(=O)(O)OP(=O)(O)OP(=O)(O)O)O2)c(=O)[nH]1 [dGTP] | increased amounts of mis-extended products | 32.20 | 67.80 | 67.80 |  | 52.99 | 19.97 | 72.97 | 24.99 | 75.01 | 75.01 |  |  |  |  |  |  |  |
| ANS γ-phosphoamide dATP [ANS-γ-dATP] | expected 3-base extension products accumulate | 73.43 | 3.87 | 77.31 | multiple modified nucleotides are incorporated | 87.43 | 12.57 | 12.57 | 71.14 | 6.51 | 77.64 |  |  |  | ~3 | ~11 | very little non-specific, single-base extension | ~14 |
